One experiment deals with Smad2/3 phosphorylation. The experiment in a line: Phospho-Smad2/3 Inhibition Assay in Panc-1 (western blot). It is filed as cell-based. The conditions noted are these: Homo sapiens; 10 μM, 3 hours; PANC-1 stimulated with 10 ng/ml TGF-b1 for 1 hour; read-out: % inh of Smad2/3 phosphorylation in PANC-1. The method in brief: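 Serum-starved cells (0.5% FBS overnight) pretreated 3 h at 37 °C with compound at 10 μM or serial dilutions for IC50, in 0.3% DMSO. TGF-b1 10 ng/ml stimulation: 1 h for Panc-1 (human), 20 min for C2C12 (mouse). Phospho-Smad2 (Ser465/467) and phospho-Smad3 (Ser423/425) measured by western blot of lysates.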
For orientation: Immunoblotting shows a protein as a band on a membrane.

For the next experiment, the target named is Rac-1 (Homo sapiens (Human), UniProt P63000). The experiment in a line: Ras GTP Binding Domain Inhibition Assay, Rac-1. The method in brief:
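His-tagged GTPase immobilized on nickel-coated plates (10-30 μg/mL, overnight, 4° C), then exposed to compound (20 μM or serial dilution for IC50, 1% DMSO) for 3 h at room temperature, with or without His-tagged Sos (residues 556-1049) in the final hour. Bound Cy3-GTP or Cy5-GTP (100 nM, 45 min) was read by fluorescence after washing.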

For a further experiment, the system named is MAPK p38. The experiment in a line: MAPK p38 Activation Assay in Panc-1 (western blot). It is filed as cell-based, Human. More on the design: key: Y = yes; N = No. The conditions noted are these: at 10 μM. The essentials: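 Cells serum-starved overnight in 0.5% FBS, then compound 3 h at 37° C (10 μM or serial dilutions for IC50; 0.3% DMSO). TGF-b1 10 ng/ml stimulation followed: 1 h for Panc-1, 20 min for C2C12. Phospho-p38 (Thr180/Tyr182) measured by western blot of lysates.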

Setting [1] is: without SOS, read-out: Rac-1: % inh.

Structures are written as SMILES. Where two headings read alike, the source gives them in different places.

For `Cc1c(-c2ccn(C(C)C)n2)sc2nc(-c3nccn3C)nc(NCC3CCCO3)c12` (racemic) [Compound 26, rac-6-(1-Isopropyl-1H-pyrazol-3-yl)-5-methyl-2-(1-methyl-1H-imidazol-2-yl)-N-((tetrahydrofuran-2-yl)methyl)thieno[2,3-d]pyrimidin-4-amine], the inhibition at 10 µM with Smad2/3 phosphorylation came to 0%. The inhibition at 20 µM on Rac-1 (setting [1]) was 46 to 75%. In the experiment on MAPK p38, the “Activation of MAPK p38 in PANC-1” value is “Y”.

As to `COCCCOc1nc(-c2nccn2C)nc2sc(-c3ccn(C(C)C)n3)c(-c3ccccc3)c12` [Compound 37, 6-(1-Isopropyl-1H-pyrazol-3-yl)-4-(3-methoxypropoxy)-2-(1-methyl-1H-imidazol-2-yl)-5-phenylthieno[2,3-d]pyrimidine], the inhibition at 10 µM in the experiment on Smad2/3 phosphorylation was 0%. In addition, the inhibition at 20 µM at Rac-1 (setting [1]) is 0%. Further, the “Activation of MAPK p38 in PANC-1” value with MAPK p38 is given as “Y”.

Regarding `COc1cc(-c2sc3nc(-c4nccn4C)nc(N[C@H]4C[C@H](OC)C4)c3c2-c2ccccc2)ccn1` [Compound 46, N-((1r,3r)-3-Methoxycyclobutyl)-6-(2-methoxypyridin-4-yl)-2-(1-methyl-1H-imidazol-2-yl)-5-phenylthieno[2,3-d]pyrimidin-4-amine], the inhibition at 10 µM with Smad2/3 phosphorylation is 76 to 100%. The inhibition at 20 µM at Rac-1 (setting [1]) fell in the range of 46 to 75%. Besides, in the experiment on MAPK p38, the “Activation of MAPK p38 in PANC-1” value was “N”.

`COc1cccc(-c2sc3nc(-c4nccn4C)nc(N[C@H]4C[C@H](OC)C4)c3c2C)c1F` [Compound 42, 6-(2-Fluoro-3-methoxyphenyl)-N-((1r,3r)-3-methoxycyclobutyl)-5-methyl-2-(1-methyl-1H-imidazol-2-yl)thieno[2,3-d]pyrimidin-4-amine]: the inhibition at 10 µM in the experiment on Smad2/3 phosphorylation fell in the range of 1 to 25%. Besides, the inhibition at 20 µM at Rac-1 (setting [1]) was 0%. Moreover, the “Activation of MAPK p38 in PANC-1” value in the experiment on MAPK p38 is “Y”.

`COCC1(OC)CCN(c2nc(-c3nccn3C)nc3sc(-c4ccn(C(C)C)n4)c(C)c23)C1` (racemic) [Compound 27, rac-6-(1-Isopropyl-1H-pyrazol-3-yl)-4-(3-methoxy-3-(methoxymethyl)pyrrolidin-1-yl)-5-methyl-2-(1-methyl-1H-imidazol-2-yl)thieno[2,3-d]pyrimidine]: the inhibition at 10 µM in the experiment on Smad2/3 phosphorylation was 0%. Also, the inhibition at 20 µM on Rac-1 (setting [1]) fell in the range of 1 to 25%. Moreover, in the experiment on MAPK p38, the “Activation of MAPK p38 in PANC-1” value is “Y”.

Regarding `COCCn1ccc(-c2sc3nc(-c4nccn4C)nc(NC[C@H]4CC[C@H]4COC)c3c2C)n1` (racemic) [Compound 38, rac-6-(1-(2-Methoxyethyl)-1H-pyrazol-3-yl)-N-(((1S,2R)-2-(methoxymethyl)cyclobutyl)methyl)-5-methyl-2-(1-methyl-1H-imidazol-2-yl)thieno[2,3-d]pyrimidin-4-amine], the inhibition at 10 µM with Smad2/3 phosphorylation fell in the range of 46 to 75%. Also, the inhibition at 20 µM on Rac-1 (setting [1]) fell in the range of 1 to 25%. Also, the “Activation of MAPK p38 in PANC-1” value in the experiment on MAPK p38 is listed as “Y”.

As to `COC1CCCN(c2nc(-c3nccn3C)nc3sc(-c4ccn(C(C)C)n4)c(C)c23)C1` (racemic) [Compound 14, rac-6-(1-Isopropyl-1H-pyrazol-3-yl)-4-(3-methoxypiperidin-1-yl)-5-methyl-2-(1-methyl-1H-imidazol-2-yl)thieno[2,3-d]pyrimidine], the inhibition at 10 µM in the experiment with Smad2/3 phosphorylation is 46 to 75%. Further, the inhibition at 20 µM on Rac-1 (setting [1]) lay in the range of 46 to 75%. Moreover, in the experiment on MAPK p38, the “Activation of MAPK p38 in PANC-1” value is listed as “Y”.

On to `COc1cc(-c2sc3nc(-c4nccn4C)nc(N[C@@H]4CC[C@@H](OC)C4)c3c2-c2ccccc2)ccn1` (racemic) [Compound 47, N-((1R,3R)-3-Methoxycyclopentyl)-6-(2-methoxypyridin-4-yl)-2-(1-methyl-1H-imidazol-2-yl)-5-phenylthieno[2,3-d]pyrimidin-4-amine], for which the inhibition at 10 µM with Smad2/3 phosphorylation was in the range of 76 to 100%. Besides, the inhibition at 20 µM at Rac-1 (setting [1]) fell in the range of 46 to 75%. For the same molecule, the “Activation of MAPK p38 in PANC-1” value in the experiment on MAPK p38 is reported as “N”.

Take `COCCN(C)c1nc(-c2nccn2C)nc2sc(-c3ccccc3)c(-c3ccccc3)c12` [Compound 2, N-(2-Methoxyethyl)-N-methyl-2-(1-methyl-1H-imidazol-2-yl)-5,6-diphenylthieno[2,3-d]pyrimidin-4-amine]: the inhibition at 10 µM in the experiment on Smad2/3 phosphorylation turned out to be 0%. Further, the inhibition at 20 µM on Rac-1 (setting [1]) fell in the range of 26 to 45%. Further, the “Activation of MAPK p38 in PANC-1” value in the experiment with MAPK p38 is “Y”.

Turning to `COCCn1ccnc1-c1nc(N[C@H]2C[C@@H](OC)C2)c2c(-c3ccccc3)c(-c3ccn(C)n3)sc2n1` [Compound 13, N-((1s,3s)-3-methoxycyclobutyl)-2-(1-(2-methoxyethyl)-1H-imidazol-2-yl)-6-(1-methyl-1H-pyrazol-3-yl)-5-phenylthieno[2,3-d]pyrimidin-4-amine], the inhibition at 10 µM with Smad2/3 phosphorylation is 46 to 75%. For the same molecule, the inhibition at 20 µM lay within 76 to 100% at Rac-1 (+ SOS, read-out: Rac-1 + SOS: % inh.) and 76 to 100% at Rac-1 (setting [1]). Also, the “Activation of MAPK p38 in PANC-1” value with MAPK p38 is “N”.

`COc1cccc(Nc2nc(-c3nccn3C)nc3sc(-c4ccn(C(C)C)n4)c(C)c23)n1` [Compound 18, 6-(1-Isopropyl-1H-pyrazol-3-yl)-N-(6-methoxypyridin-2-yl)-5-methyl-2-(1-methyl-1H-imidazol-2-yl)thieno[2,3-d]pyrimidin-4-amine]: in the experiment with Smad2/3 phosphorylation, the inhibition at 10 µM was in the range of 46 to 75%. The inhibition at 20 µM at Rac-1 (setting [1]) lay within 46 to 75%. In addition, in the experiment on MAPK p38, the “Activation of MAPK p38 in PANC-1” value is “Y”.

The values are drawn from patent US20240124483A1, “Methods for the Treatment of Fibrotic Disease” (SHY Therapeutics, LLC, priority 2021, published 2024).
